Data: ChEMBL document CHEMBL4325871 (Eur J Med Chem, 2019)
Calls of active or inactive are those of the source. The calls are words filed in the database; no cut-off is given here.

Legend:
[1] = molecular target: Serine/threonine-protein kinase Nek9 (Homo sapiens) (UniProt Q8TD19); experiment: Inhibition of human NEK9 assessed as residual activity at 1 uM using casein as substrate by [gamma-33P]-ATP assay relative to control
[2] = molecular target: Mitogen-activated protein kinase kinase kinase 10 (Homo sapiens) (UniProt Q02779); experiment: Inhibition of human MLK2 assessed as residual activity at 1 uM using MBP as substrate by [gamma-33P]-ATP assay relative to control
[3] = molecular target: Glycogen synthase kinase-3 beta (Homo sapiens) (UniProt P49841); experiment: Inhibition of human GSK3B assessed as residual activity at 1 uM using YRRAAVPPSPSLSRHSSPHQ(pS)EDEEE as substrate by [gamma-33P]-ATP assay relative to control
[4] = molecular target: Casein kinase I isoform epsilon (Homo sapiens) (UniProt P49674); experiment: Inhibition of human CK1E assessed as residual activity at 1 uM using KRRRAL[pS]VASLPGL as substrate by [gamma-33P]-ATP assay relative to control
[5] = molecular target: Tyrosine-protein kinase ZAP-70 (Homo sapiens) (UniProt P43403); experiment: Inhibition of human ZAP70 assessed as residual activity at 1 uM using poly[Glu:Tyr] (4:1) as substrate by [gamma-33P]-ATP assay relative to control
[6] = molecular target: Angiopoietin-1 receptor (Homo sapiens) (UniProt Q02763); experiment: Inhibition of human TIE2 assessed as residual activity at 1 uM using poly[Glu:Tyr] (4:1) as substrate by [gamma-33P]-ATP assay relative to control
[7] = molecular target: Bone morphogenetic protein receptor type-2 (Homo sapiens) (UniProt Q13873); experiment: Inhibition of human BMPR2 assessed as residual activity at 1 uM using MBP as substrate by [gamma-33P]-ATP assay relative to control
[8] = molecular target: Mitogen-activated protein kinase kinase kinase 5 (Homo sapiens) (UniProt Q99683); experiment: Inhibition of human ASK1 assessed as residual activity at 1 uM using MBP as substrate by [gamma-33P]-ATP assay relative to control
[9] = molecular target: Dual specificity mitogen-activated protein kinase kinase 1 (Homo sapiens) (UniProt Q02750); experiment: Inhibition of human MEK1 assessed as residual activity at 1 uM using ERK2 as substrate by [gamma-33P]-ATP assay relative to control
[10] = molecular target: SRSF protein kinase 2 (Homo sapiens) (UniProt P78362); experiment: Inhibition of human SRPK2 assessed as residual activity at 1 uM using GRSRSRSRSR as substrate by [gamma-33P]-ATP assay relative to control
[11] = molecular target: T1, Serine/threonine-protein kinase Chk1 (Homo sapiens) (UniProt O14757); experiment: Inhibition of CHK1 phosphorylation at S345 residue in human HCT116 cells at 20 uM after 8 hrs by Western blot analysis; format: cell-based
T1 sequence (whole entry): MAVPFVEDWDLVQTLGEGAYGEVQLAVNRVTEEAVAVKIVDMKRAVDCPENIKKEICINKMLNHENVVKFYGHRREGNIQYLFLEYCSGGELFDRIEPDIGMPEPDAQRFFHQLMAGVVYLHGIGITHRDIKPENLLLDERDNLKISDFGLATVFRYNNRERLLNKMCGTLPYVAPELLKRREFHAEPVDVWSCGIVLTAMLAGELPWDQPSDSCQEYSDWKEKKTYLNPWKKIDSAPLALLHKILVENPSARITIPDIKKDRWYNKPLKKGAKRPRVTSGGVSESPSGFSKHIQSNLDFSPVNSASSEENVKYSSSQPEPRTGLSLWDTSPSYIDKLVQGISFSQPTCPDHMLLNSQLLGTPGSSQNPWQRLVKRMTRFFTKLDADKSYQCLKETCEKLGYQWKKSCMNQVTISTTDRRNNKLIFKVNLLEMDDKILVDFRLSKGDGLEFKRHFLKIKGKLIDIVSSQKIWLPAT

[12] = molecular target: Insulin receptor (Homo sapiens) (UniProt P06213); experiment: Inhibition of human IR assessed as residual activity at 1 uM using poly[Glu:Tyr] (4:1) as substrate by [gamma-33P]-ATP assay relative to control
[13] = molecular target: Myosin light chain kinase (Homo sapiens) (UniProt Q32MK0); experiment: Inhibition of human MYLK3 assessed as residual activity at 1 uM using KKRPQRRYSNVF as substrate by [gamma-33P]-ATP assay relative to control
[14] = molecular target: T2, Serine/threonine-protein kinase A-Raf (Homo sapiens) (UniProt P10398); experiment: Inhibition of human ARAF assessed as residual activity at 1 uM using MEK1 as substrate by [gamma-33P]-ATP assay relative to control
T2 sequence (whole entry): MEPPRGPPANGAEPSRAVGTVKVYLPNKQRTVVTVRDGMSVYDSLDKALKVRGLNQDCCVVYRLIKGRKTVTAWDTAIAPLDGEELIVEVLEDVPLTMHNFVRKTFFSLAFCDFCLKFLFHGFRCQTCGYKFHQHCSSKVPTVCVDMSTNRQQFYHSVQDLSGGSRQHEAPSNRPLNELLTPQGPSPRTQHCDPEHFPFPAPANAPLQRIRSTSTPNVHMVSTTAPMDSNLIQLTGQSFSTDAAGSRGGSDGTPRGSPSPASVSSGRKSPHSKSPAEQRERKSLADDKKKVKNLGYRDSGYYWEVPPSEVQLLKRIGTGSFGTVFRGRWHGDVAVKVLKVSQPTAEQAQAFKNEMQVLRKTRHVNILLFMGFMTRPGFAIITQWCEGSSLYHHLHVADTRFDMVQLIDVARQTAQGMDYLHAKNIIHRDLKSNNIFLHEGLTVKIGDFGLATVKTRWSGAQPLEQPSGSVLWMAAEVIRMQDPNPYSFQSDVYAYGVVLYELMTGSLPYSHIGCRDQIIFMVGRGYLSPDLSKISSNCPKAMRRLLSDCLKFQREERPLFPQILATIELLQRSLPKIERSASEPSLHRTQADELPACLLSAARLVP

[15] = molecular target: MAP kinase-activated protein kinase 5 (Homo sapiens) (UniProt Q8IW41); experiment: Inhibition of human MAPKAPK5 assessed as residual activity at 1 uM using KKLNRTLSVA as substrate by [gamma-33P]-ATP assay relative to control
[16] = molecular target: Ephrin type-B receptor 3 (Homo sapiens) (UniProt P54753); experiment: Inhibition of human EPHB3 assessed as residual activity at 1 uM using poly[Glu:Tyr] (4:1) as substrate by [gamma-33P]-ATP assay relative to control
[17] = molecular target: Phosphorylase b kinase gamma catalytic chain, liver/testis isoform (Homo sapiens) (UniProt P15735); experiment: Inhibition of human PHKgamma2 assessed as residual activity at 1 uM using MBP as substrate by [gamma-33P]-ATP assay relative to control
[18] = molecular target: Serine/threonine-protein kinase tousled-like 1 (Homo sapiens) (UniProt Q9UKI8); experiment: Inhibition of human TLK1 assessed as residual activity at 1 uM using Histone H3 as substrate by [gamma-33P]-ATP assay relative to control
[19] = molecular target: Serine/threonine-protein kinase Nek7 (Homo sapiens, UniProt Q8TDX7); experiment: Inhibition of human NEK7 assessed as residual activity at 1 uM using casein as substrate by [gamma-33P]-ATP assay relative to control
Chain of Serine/threonine-protein kinase Nek7 (Q8TDX7 whole entry, looked up): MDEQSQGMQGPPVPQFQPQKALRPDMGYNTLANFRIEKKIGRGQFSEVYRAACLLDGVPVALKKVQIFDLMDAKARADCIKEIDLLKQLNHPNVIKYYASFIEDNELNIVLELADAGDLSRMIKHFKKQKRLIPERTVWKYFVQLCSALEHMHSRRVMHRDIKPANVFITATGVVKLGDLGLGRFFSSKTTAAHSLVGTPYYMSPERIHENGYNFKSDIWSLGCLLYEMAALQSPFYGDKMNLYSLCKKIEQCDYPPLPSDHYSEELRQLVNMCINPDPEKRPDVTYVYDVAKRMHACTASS

Chain of Ephrin type-B receptor 3 (Homo sapiens) (P54753 whole entry, canonical isoform): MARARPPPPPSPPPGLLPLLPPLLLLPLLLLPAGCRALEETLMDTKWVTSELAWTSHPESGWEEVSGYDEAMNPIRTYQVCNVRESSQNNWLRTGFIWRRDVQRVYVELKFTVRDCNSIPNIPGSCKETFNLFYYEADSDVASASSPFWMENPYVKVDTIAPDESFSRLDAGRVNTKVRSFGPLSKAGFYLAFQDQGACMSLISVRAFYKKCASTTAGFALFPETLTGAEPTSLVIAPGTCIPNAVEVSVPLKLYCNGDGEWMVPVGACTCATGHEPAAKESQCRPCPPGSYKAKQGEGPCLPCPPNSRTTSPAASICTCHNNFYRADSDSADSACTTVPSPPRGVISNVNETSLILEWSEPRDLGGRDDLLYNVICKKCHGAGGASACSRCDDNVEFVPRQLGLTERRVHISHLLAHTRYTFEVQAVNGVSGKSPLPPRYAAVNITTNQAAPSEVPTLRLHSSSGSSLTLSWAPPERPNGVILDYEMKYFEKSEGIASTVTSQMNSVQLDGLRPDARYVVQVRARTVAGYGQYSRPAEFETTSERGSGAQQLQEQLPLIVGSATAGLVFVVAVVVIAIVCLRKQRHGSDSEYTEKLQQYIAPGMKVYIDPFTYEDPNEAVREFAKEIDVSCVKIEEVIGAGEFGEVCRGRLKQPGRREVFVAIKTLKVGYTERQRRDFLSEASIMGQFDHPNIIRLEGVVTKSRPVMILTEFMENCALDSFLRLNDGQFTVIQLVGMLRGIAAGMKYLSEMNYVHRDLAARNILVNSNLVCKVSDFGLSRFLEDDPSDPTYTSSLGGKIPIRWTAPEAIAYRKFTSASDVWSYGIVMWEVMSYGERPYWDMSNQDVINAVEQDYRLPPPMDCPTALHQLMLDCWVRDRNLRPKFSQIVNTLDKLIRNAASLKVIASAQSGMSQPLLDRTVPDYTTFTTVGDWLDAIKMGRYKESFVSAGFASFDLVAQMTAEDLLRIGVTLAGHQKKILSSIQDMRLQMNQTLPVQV
Chain of Dual specificity mitogen-activated protein kinase kinase 1 (Homo sapiens) (Q02750 whole entry): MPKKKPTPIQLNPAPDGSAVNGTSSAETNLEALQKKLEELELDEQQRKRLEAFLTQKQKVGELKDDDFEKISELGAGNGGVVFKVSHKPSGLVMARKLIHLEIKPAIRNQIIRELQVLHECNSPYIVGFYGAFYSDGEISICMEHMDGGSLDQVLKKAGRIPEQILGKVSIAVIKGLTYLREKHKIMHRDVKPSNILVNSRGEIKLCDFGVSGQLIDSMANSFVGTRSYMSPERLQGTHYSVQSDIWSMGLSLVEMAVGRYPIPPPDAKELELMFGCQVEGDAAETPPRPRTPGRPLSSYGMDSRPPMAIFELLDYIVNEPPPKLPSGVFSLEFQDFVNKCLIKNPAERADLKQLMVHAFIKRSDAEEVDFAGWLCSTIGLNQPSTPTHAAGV
Chain of Tyrosine-protein kinase ZAP-70 (Homo sapiens) (P43403 whole entry): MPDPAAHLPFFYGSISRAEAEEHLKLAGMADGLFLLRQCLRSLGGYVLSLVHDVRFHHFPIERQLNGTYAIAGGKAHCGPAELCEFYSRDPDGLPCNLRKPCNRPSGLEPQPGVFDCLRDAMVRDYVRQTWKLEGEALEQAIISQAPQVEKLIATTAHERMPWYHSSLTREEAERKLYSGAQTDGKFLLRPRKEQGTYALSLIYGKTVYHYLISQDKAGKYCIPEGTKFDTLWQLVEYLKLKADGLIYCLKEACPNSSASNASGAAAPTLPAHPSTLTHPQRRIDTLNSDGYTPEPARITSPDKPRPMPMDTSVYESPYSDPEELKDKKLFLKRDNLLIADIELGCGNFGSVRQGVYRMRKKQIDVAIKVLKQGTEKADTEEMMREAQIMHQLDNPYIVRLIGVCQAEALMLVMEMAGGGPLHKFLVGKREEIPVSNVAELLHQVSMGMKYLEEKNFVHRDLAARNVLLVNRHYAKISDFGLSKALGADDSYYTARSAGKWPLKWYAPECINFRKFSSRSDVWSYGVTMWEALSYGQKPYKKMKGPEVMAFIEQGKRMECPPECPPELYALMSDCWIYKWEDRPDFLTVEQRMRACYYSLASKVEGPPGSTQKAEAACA
Chain of Mitogen-activated protein kinase kinase kinase 5 (Homo sapiens) (Q99683 whole entry): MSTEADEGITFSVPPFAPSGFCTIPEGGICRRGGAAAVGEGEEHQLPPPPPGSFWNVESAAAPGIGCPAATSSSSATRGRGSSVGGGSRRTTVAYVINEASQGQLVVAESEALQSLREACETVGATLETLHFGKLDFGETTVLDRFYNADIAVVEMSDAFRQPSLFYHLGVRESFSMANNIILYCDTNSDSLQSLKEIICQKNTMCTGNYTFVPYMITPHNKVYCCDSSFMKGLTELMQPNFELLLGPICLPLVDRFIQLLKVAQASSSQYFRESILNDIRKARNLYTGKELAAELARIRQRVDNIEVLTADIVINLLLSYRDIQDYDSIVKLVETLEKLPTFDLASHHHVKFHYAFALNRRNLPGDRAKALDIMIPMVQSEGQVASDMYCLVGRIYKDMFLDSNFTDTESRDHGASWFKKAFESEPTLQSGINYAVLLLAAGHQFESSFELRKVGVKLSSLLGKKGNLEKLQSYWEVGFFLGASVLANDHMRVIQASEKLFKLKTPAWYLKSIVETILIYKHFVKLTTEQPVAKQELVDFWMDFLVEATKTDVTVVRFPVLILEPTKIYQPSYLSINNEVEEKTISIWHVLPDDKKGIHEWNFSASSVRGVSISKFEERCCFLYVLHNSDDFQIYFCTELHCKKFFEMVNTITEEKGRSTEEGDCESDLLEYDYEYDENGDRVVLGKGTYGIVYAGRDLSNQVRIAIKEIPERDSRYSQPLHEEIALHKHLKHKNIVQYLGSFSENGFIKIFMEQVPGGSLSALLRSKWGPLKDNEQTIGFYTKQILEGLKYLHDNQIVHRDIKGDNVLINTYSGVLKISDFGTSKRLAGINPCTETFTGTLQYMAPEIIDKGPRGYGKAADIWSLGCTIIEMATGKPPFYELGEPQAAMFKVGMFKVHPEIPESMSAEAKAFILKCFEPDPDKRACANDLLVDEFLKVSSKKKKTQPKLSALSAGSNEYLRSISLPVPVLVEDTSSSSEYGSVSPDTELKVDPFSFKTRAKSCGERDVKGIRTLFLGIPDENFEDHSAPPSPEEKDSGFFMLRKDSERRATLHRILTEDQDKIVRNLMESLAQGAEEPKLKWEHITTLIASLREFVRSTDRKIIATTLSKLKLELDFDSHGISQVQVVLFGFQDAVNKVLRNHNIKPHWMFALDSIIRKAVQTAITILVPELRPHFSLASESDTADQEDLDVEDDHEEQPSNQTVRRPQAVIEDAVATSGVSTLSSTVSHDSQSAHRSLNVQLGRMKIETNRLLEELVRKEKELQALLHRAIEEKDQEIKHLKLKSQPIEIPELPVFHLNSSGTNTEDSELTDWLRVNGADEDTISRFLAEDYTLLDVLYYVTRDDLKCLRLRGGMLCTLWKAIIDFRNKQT
Chain of Serine/threonine-protein kinase Nek9 (Homo sapiens) (Q8TD19 whole entry): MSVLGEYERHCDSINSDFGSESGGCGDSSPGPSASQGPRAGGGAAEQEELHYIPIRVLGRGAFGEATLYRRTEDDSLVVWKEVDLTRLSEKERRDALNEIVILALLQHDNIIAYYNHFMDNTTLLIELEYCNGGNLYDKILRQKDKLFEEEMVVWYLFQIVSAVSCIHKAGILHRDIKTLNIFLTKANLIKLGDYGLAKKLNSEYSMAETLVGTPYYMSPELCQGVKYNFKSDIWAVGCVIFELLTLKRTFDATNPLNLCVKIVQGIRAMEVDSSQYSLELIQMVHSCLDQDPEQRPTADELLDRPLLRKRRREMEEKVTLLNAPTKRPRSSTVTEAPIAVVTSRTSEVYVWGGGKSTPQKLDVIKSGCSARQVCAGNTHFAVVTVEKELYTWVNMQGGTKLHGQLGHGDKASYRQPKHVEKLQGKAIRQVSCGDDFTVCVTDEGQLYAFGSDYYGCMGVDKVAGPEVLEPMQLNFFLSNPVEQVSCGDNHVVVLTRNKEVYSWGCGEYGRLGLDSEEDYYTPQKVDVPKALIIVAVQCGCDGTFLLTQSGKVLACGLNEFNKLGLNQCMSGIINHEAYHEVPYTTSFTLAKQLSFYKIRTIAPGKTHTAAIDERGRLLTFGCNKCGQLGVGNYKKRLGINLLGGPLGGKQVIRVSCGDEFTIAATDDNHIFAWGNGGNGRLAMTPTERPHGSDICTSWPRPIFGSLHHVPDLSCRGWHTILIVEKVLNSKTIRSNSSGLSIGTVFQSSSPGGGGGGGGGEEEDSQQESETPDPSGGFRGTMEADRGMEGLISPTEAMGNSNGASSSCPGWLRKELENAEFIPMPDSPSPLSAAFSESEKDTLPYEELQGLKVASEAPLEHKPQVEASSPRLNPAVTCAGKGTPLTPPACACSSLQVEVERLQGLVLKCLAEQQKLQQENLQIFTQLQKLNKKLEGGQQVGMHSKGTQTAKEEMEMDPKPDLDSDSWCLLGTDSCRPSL
Chain of Phosphorylase b kinase gamma catalytic chain, liver/testis isoform (Homo sapiens) (P15735 whole entry, canonical isoform): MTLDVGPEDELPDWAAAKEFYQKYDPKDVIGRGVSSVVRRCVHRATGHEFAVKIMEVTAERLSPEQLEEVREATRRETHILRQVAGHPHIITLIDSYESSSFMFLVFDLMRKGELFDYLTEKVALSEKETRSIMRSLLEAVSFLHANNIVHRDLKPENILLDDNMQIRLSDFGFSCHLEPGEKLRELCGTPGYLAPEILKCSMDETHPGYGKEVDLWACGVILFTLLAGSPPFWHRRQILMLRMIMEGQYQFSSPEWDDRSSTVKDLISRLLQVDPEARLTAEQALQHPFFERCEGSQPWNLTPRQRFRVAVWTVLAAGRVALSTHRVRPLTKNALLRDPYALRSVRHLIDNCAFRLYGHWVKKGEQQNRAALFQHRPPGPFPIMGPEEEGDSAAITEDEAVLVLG

Row | Compound | Activity [1] [%] | Activity [2] [%] | Activity [3] [%] | Activity [4] [%] | Activity [5] [%] | Activity [6] [%] | Activity [7] [%] | Activity [8] [%] | Activity [9] [%] | Activity [10] [%] | inhibition [11] | Activity [12] [%] | Activity [13] [%] | Activity [14] [%] | Activity [15] [%] | Activity [16] [%] | Activity [17] [%] | Activity [18] [%] | Activity [19] [%]
1 | C(=C\c1ccccc1)/C[N+]12CN3CN(CN(C3)C1)C2 | 93.4 to 95.1 | 96 to 96.1 | 93.6 to 94.9 | 90.1 to 93.2 | 94.2 to 96.3 | 91.4 to 93.7 | 96.8 to 98.9 | 89.4 to 90.7 | 93 to 94.8 | 107 to 111 | inactive | 96 to 96.4 | 92 to 96.4 | 92 to 97 | 93.2 to 94.5 | 94 to 96 | – | – | –
2 | ClC/C=C/C[N+]12CN3CN(CN(C3)C1)C2 | 93.8 to 95.2 | – | – | – | 90.6 to 91.5 | 95.9 to 96 | – | 87.6 to 89 | 94.4 to 96.6 | – | – | 95 to 96.7 | – | 93.8 to 95.3 | – | 93 to 93.5 | 92.2 to 94.9 | 93.1 to 93.4 | 94.2 to 95.6
